Results: article PMC6545111 (Journal of medicinal chemistry, 2018)
Where “and” joins values, the source holds several entries; their conditions need not be identical. Identical values can stand only once. Like-named read-outs stand apart in the source and are kept apart here.

Tests used:
[1] = test system: MV4;11, MOLM-13 and RS4;11 acute leukemia cell lines; assay: Cell growth inhibition, statements covering the three leukemia cell lines; type: cell-based, human
[2] = test system: BRD2, BRD3, BRD4, c-Myc and cleaved PARP in RS4;11 xenograft tumors; assay: Pharmacodynamic analysis in RS4; type: in vivo, SCID mice
[3] = test system: cleaved PARP and cleaved Caspase 3 in MV4;11 cells; assay: Western blotting of cleaved PARP / caspase 3 in MV4; type: cell-based, human; conditions: MV4;11 cell line
MV4;11 cells = assay: Apoptosis by flow cytometry; type: cell-based, human; conditions: MV4;11, as low as 1 nM, 24 h treatment
[4] = test system: BRD2, BRD3 and BRD4 proteins in RS4;11 cells; conditions: 3 h treatment
GSPT1 protein = GSPT1 protein (Homo sapiens, UniProt P15170); assay: Western blotting of GSPT1 in MV4; type: cell-based; conditions: MV4;11 and RS4;11 cells
Sequence of GSPT1 protein (P15170 whole entry): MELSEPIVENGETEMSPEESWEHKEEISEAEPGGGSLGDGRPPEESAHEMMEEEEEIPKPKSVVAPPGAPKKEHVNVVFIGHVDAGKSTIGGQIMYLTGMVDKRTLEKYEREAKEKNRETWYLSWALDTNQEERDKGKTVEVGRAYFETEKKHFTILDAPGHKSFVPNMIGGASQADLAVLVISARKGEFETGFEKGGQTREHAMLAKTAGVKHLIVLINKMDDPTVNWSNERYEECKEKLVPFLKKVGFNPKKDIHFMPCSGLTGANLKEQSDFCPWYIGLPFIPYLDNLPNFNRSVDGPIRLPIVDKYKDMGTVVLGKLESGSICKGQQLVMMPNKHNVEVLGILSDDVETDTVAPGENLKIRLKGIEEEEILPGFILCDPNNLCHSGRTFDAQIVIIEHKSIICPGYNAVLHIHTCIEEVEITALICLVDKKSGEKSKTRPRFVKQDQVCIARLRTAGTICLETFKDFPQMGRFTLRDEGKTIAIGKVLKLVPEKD

[5] = Tissue distribution in mice bearing RS4; type: in vivo, SCID mice; conditions: IV, 5mg/kg; for Concentration of QCA570 in Heart / Concentration of QCA570 in Intestine / Concentration of QCA570 in Kidney / Concentration of QCA570 in Liver / Concentration of QCA570 in Lung / Concentration of QCA570 in Tumor / Concentration of QCA570 in plasma: individual mice
[6] = test system: c-Myc protein in MV4;11 cells; assay: Western blotting of c-Myc in MV4; type: cell-based, human; conditions: MV4;11 cell line
RS4;11 xenograft tumors = assay: Anti-tumor efficacy, RS4; type: in vivo, SCID mice
MV4;11 xenograft tumors = conditions: 3 times per week for 2 weeks, intravenous
[7] = test system: BRD2, BRD3 and BRD4 proteins in MV4;11 cells; assay: Western blotting of BET proteins in MV4; type: cell-based; conditions: 3 h treatment
[8] = test system: cleaved PARP and cleaved Caspase 3 in RS4;11 cells; assay: Western blotting of cleaved PARP / caspase 3 in RS4; type: cell-based, human; conditions: RS4;11 cell line, 24 h treatment
RS4;11 cells = assay: Apoptosis by flow cytometry; type: cell-based, human
MOLM-13 cells = assay: Apoptosis by flow cytometry; type: cell-based, human; conditions: MOLM-13, as low as 1 nM, 24 h treatment
[9] = test system: c-Myc protein in RS4;11 cells; assay: Western blotting of c-Myc in RS4; type: cell-based, human; conditions: RS4;11 cell line
[10] = RS4;11 xenograft, all treatment groups

## 3-(4-(5-(4-((3-Benzyl-9-methyl-4H,6H-thieno[2,3-e][1,2,4]triazolo[3,4-c][1,4]oxazepin-2-yl)ethynyl)-1H-pyrazol-1-yl)pent-1-yn-1-yl)-1-oxoisoindolin-2-yl)piperidine-2,6-dione [Compound 35]
[1]; MV4;11 and MOLM-13 cell lines
  times more potent than ZBC260 in cell growth inhibition: > 10 times
[1]; each of the three cell lines
  times more potent than ARV-771 in cell growth inhibition: > 10 times
  times more potent than ARV-825 in cell growth inhibition: > 10 times
  times more potent than dBET1 in cell growth inhibition: > 1,000 times
[2]; single intravenous dose 1 and 5 mg/kg, 1 h and 6 h time-points
  levels of BRD2, BRD3 and BRD4 proteins in tumor tissue: dramatically reduces
[2]; single intravenous dose 1 and 5 mg/kg, all time points (1, 6, 24 h)
  c-Myc protein levels in tumor tissue: reduces c-Myc protein levels dramatically
[2]; single intravenous dose, 6 h and 24 h time-points
  cleavage of PARP in tumor tissue: very effective in inducing cleavage of PARP
[2]; single intravenous dose, 24 h time-point
  reduction of BRD4 protein level at 24 h, 5 mg/kg compared with 1 mg/kg: more effective
[3]
  lowest concentration inducing caspase 3 activation: ≤ 0.3 nM
[3]; 24 h treatment
  lowest concentration inducing robust cleavage of PARP: 0.1 to 0.3 nM
MV4;11 cells
  cells undergoing apoptosis: > 60%
[4]; 0.5 nM
  degradation of BRD2, BRD3 and BRD4 proteins: complete degradation
[4]
  concentration effective in reducing BRD2 protein level: 30 to 100 pM
  lowest concentration very effective in reducing BRD3 and BRD4 protein levels: ≤ 10 pM
GSPT1 protein
  effect on GSPT1 protein: no effect
[5]; 1 h, listed as QCA570, 5 mg/kg
  Concentration of QCA570 in Heart: 373 ng/g and 288 ng/g
  Concentration of QCA570 in Intestine: 1283 ng/g and 1009 ng/g
  Concentration of QCA570 in Kidney: 649 ng/g and 675 ng/g
  Concentration of QCA570 in Liver: 1227 ng/g and 1720 ng/g
  Concentration of QCA570 in Lung: 1041 ng/g and 696 ng/g
  Concentration of QCA570 in Tumor: 642 ng/g and 405 ng/g
  Concentration of QCA570 in plasma: 1575 ng/mL and 2360 ng/mL
[5]; 3 h, listed as QCA570, 5 mg/kg
  Concentration of QCA570 in Heart: 17 ng/g and 22 ng/g
  Concentration of QCA570 in Intestine: 50 ng/g and 92 ng/g
  Concentration of QCA570 in Kidney: 40 ng/g and 49 ng/g
  Concentration of QCA570 in Liver: 57 ng/g and 209 ng/g
  Concentration of QCA570 in Lung: 35 ng/g and 89 ng/g
  Concentration of QCA570 in Tumor: 177 ng/g and 199 ng/g
  Concentration of QCA570 in plasma: 47 ng/mL and 263 ng/mL
[5]; 6 h
  Concentration of QCA570 in Heart: BLQ
  Concentration of QCA570 in Intestine: BLQ
  Concentration of QCA570 in Kidney: BLQ
  Concentration of QCA570 in Liver: BLQ
  Concentration of QCA570 in Lung: BLQ
  Concentration of QCA570 in plasma: BLQ
[5]; 6 h, listed as QCA570, 5 mg/kg
  Concentration of QCA570 in Tumor: 87.9 ng/g and 68.7 ng/g
[5]; Mean (1h)
  Concentration of QCA570 in Heart, mean: 331 ng/g
  Concentration of QCA570 in Intestine, mean: 1146 ng/g
  Concentration of QCA570 in Kidney, mean: 662 ng/g
  Concentration of QCA570 in Liver, mean: 1473 ng/g
  Concentration of QCA570 in Lung, mean: 868 ng/g
  Concentration of QCA570 in Tumor, mean: 524 ng/g
  Concentration of QCA570 in plasma, mean: 1968 ng/mL
[5]; Mean (3h)
  Concentration of QCA570 in Heart, mean: 19 ng/g
  Concentration of QCA570 in Intestine, mean: 71 ng/g
  Concentration of QCA570 in Kidney, mean: 44 ng/g
  Concentration of QCA570 in Liver, mean: 133 ng/g
  Concentration of QCA570 in Lung, mean: 62 ng/g
  Concentration of QCA570 in Tumor, mean: 188 ng/g
  Concentration of QCA570 in plasma, mean: 155 ng/mL
[5]; Mean (6 h)
  Concentration of QCA570 in Heart, mean: BLQ
  Concentration of QCA570 in Intestine, mean: BLQ
  Concentration of QCA570 in Kidney, mean: BLQ
  Concentration of QCA570 in Liver, mean: BLQ
  Concentration of QCA570 in Lung, mean: BLQ
  Concentration of QCA570 in Tumor, mean: 78 ng/g
  Concentration of QCA570 in plasma, mean: BLQ
[6]
  lowest concentration very effective in reducing c-Myc protein levels: ≤ 30 pM
RS4;11 xenograft tumors; RS4;11 xenograft, 5 mg/kg weekly
  tumor response: complete tumor growth inhibition but not tumor regression
RS4;11 xenograft tumors; RS4;11 xenograft, 1, 2.5 and 5 mg/kg, 3 times per week for 3 weeks
  tumor response: complete and long-lasting tumor regression
RS4;11 xenograft tumors; [10]
  animal weight loss: minimal animal weight loss
  signs of toxicity: no other signs of toxicity
MV4;11 xenograft tumors; 1 mg/kg
  tumor response: complete tumor regression
MV4;11 xenograft tumors; 5 mg/kg
  tumor response: complete and long-lasting tumor regression
[7]
  concentration effective in reducing BRD2 protein level: 30 to 100 pM
  lowest concentration very effective in reducing BRD3 and BRD4 protein levels: ≤ 10 pM
[8]
  caspase 3 cleavage: not detected
  lowest concentration inducing robust cleavage of PARP: 0.1 to 0.3 nM
RS4;11 cells; RS4;11, 0.1 nM, 24 h treatment
  apoptosis induction: minimal effect
RS4;11 cells; RS4;11, 0.1 nM, 48 h treatment
  cells undergoing apoptosis: > 40%
RS4;11 cells; RS4;11, 0.3–10 nM, 24 h treatment
  cells undergoing apoptosis: 15–30%
MOLM-13 cells
  cells undergoing apoptosis: > 60%
[9]
  lowest concentration very effective in reducing c-Myc protein levels: ≤ 10 pM
